This note sets out measurements from patent US20110305637A1, “RADIOLABELLED PDE10 LIGANDS” (Janssen Pharmaceutica N.V., priority 2009, published 2011).

The nature of the series: Brain metabolite analysis (cerebrum, cerebellum, not perfused). The series is classed as in vivo, rat. Particulars: 60 min p.i. As to the method: (§1) From the same animals that were used for plasma analysis, brain was also dissected and rinsed with saline (Mini Plasco®, Braun, Melsungen, Germany) to rinse off the blood. Cerebrum and cerebellum were collected separately and homogenized in 3 mL and 2 mL of acetonitrile, respectively, for about 3 min. A volume of 1 mL of this homogenate was diluted with an equal volume of water and a part of this homogenate was filtered through 0.22 μm filter (Millex®-GV, Millipore, Ireland). About 0.5 mL of the filtrate was spiked with 5 μL of non-radioactive B-1 solution (1 mg/mL) and then injected on to HPLC, which was connected with an XBridge™ column (C18, […], 3 mm×100 mm, Waters) eluted with mixtures of 0.05 M sodium acetate buffer pH 5.5 and acetonitrile (60:40 v/v) at a flow rate of 0.8 mL/min. Similar to the plasma analysis, the HPLC eluate was collected as 1-mL fractions after passing through UV detector, and the radioactivity in the fractions was measured using the automated gamma counter.
Based on their higher hydrophilicity we can expect that these radiometabolites may not cross the blood brain barrier (BBB). However, in order to rule out the presence or entry of these metabolites to the brain, we have also analyzed cerebrum and cerebellum samples of rats after isolation and subsequent homogenization at 60 min after injection of [^18F]B-1 (n=2).
as §1, with “of non-radioactive B-2 solution (1” for “of non-radioactive B-1 solution (1”, “and acetonitrile (65:35 v/v) at” for “and acetonitrile (60:40 v/v) at”, “passing through the UV detector,” for “passing through UV detector,”
Based on their higher hydrophilicity we can expect that these radiometabolites may not cross BBB. However, in order to rule out the presence or entry of these metabolites to the brain, we have also analyzed cerebrum and cerebellum samples of rats after isolation and subsequent homogenization at 60 min after injection of [^18F]B-2 (n=2).

In the case of `[18F]CCCn1cc(-c2ccncc2)c(-c2ccc(OCc3ccc4ccccc4n3)cc2)n1` [[^18F]B-1], for the setting “rat cerebellum”, the “Relative percentage of apolar metabolite(s)” value was found to be 1.4 ± 0.9% and the “Relative percentage of polar metabolite(s)” value is given as 15.3 ± 1.8%. For the setting “rat cerebrum”, the “Relative percentage of apolar metabolite(s)” value came to 0.3 ± 0.0% and the “Relative percentage of polar metabolite(s)” value came to 6.6 ± 2.9%.
